Assays:
Type in all cases: cell-based
uninfected Vero cells = assay: in vitro; settings: African green monkey
Description: (§1) Potential cytotoxic effects of the compounds were evaluated in uninfected Vero cells. Cells were seeded at 4×10^4 cells/well in a 96-well plate in the presence of two-, three- or five-fold serial dilutions (ranging from 50 μg/mL-0.0038 μg/mL, 50 μg/mL-0.0076 μg/mL, and 50 μg/mL-0.00013 μg/mL, respectively) of compound and incubated for 4 to 7 days. Culture medium was discarded and 100 μL 3-(4,5-dimethylthiazol-2-yl)-5-(3-carboxymethoxyphenyl)-2-(4-sulfophenyl)-2H-tetrazolium/phenazinemethosulfate (MTS/PMS; Promega, Leiden, The Netherlands) in PBS was added to each well. Following a 2-hour incubation period at 37° C., the optical density was determined at 498 nm. Cytotoxic activity was calculated using the following formula: % cell viability=100×(ODCompound/ODCC), where ODCompound and ODCC correspond to the optical density at 498 nm of the uninfected cell cultures treated with compound and that of uninfected, untreated cell cultures, respectively. The 50% cytotoxic concentration (i.e., the concentration that reduces the total cell number with 50%; CC50) was calculated using linear interpolation (Tables 7 and 8).

in vitro [1] = settings: African green monkey, CC50
Description: as §1

DENV-4 strain H241 = assay: Tetravalent RT-qPCR assay Protocol A, serotype 4 H241; settings: Dengue virus, DENV4, 72 h, RT-qPCR serotype 4 H241, Vero cells, 3 days
Description: The antiviral activity of the compounds of the invention was tested against DENV-1 strain TC974#666 (NCPV), DENV-2 strain 16681, DENV-3 strain H87 (NCPV) and DENV-4 strains H241 (NCPV) and EDEN (SG/06K2270DK1/2005; GenBank accession number QG398256) in a RT-qPCR assay. Therefore, Vero cells were infected with either DENV-1, or -2, or -3, or -4 in the presence or absence of test compounds. At day 3 post-infection, the cells were lysed and cell lysates were used to prepare cDNA of both a viral target (the 3′UTR of DENV; table 2) and a cellular reference gene (β-actin, table 2). Subsequently, a duplex real time PCR was performed on a Lightcycler480 instrument. The generated Cp value is inversely proportional to the amount of RNA expression of these targets. Inhibition of DENV replication by a test compound result in a shift of Cp's for the 3′UTR gene. On the other hand, if a test compound is toxic to the cells, a similar effect on β-actin expression will be observed. The comparative ΔΔCp method is used to calculate EC50, which is based on the relative gene expression of the target gene (3′UTR) normalized with the cellular housekeeping gene (β-actin). In addition, CC50 values were determined based on the Cp values acquired for the housekeeping gene β-actin.
The culture medium consisted of minimal essential medium supplemented with 2% of heat-inactivated fetal calf serum, 0.04% gentamycin (50 mg/mL) and 2 mM of L-glutamine. Vero cells, obtained from ECACC, were suspended in culture medium and 75 μL/well was added in 96-well plates (10000 cells/well), which already contain the antiviral compounds. Typically, these plates contain a 4-fold serial dilution of 9 dilution steps of the test compound at 200 times the final concentration in 100% DMSO (500 nL; final concentration range: 25 μM-0.00038 μM). In addition, each plate contains wells which are assigned as virus controls (containing cells and virus in the absence of compound) and cell controls (containing cells in the absence of virus and compound). Once the cells were added in the plates, the plates were incubated in a fully humidified incubator (37° C., 5% CO2) until the next day. Then, DENV-1 strain TC974#666, DENV-2 strain 16681, DENV-3 strain H87 or DENV-4 strains H241 or EDEN were added. […] In parallel, 25 μL of culture medium was added to the cell controls. Next, the plates were incubated for 3 days in a fully humidified incubator (37° C., 5% CO2). After 3 days, the supernatant was removed from the wells and the cells were washed twice with ice-cold PBS (˜100 μL). The cell pellets within the 96-well plates were stored at −80° C. for at least 1 day. Next, RNA was extracted using the Cells-to-CT™ lysis kit, according to the manufacture's guideline (Applied Biosystems). The cell lysates can be stored at −80° C. or immediately used in the reverse transcription step.
In preparation of the reverse transcription step, mix A (table 3A) was prepared and 7.57 μL/well was dispensed in a 96-well plate. After addition of 5 μL of the cell lysates, a five minute denaturation step at 75° C. was performed (table 3B). Afterwards, 7.43 μL of mix B was added (table 3C) and the reverse transcription step was initiated (table 3D) to generate cDNA.
Finally, a RT-qPCR mix was prepared, mix C (table 4A), dispensed in 96-well LightCycler qPCR plates to which 3 μL of cDNA was added and the qPCR was performed according to the conditions in table 4B on a LightCycler 480.
Using the LightCycler software and an in-house LIMS system, dose response curves for each compound were calculated and the half maximal effective concentration (EC50) and the half maximal cytotoxic concentration (CC50) were determined (Tables 6-9).

in vitro [2] = settings: African green monkey, CC50; remark: listed apart in the source
Description: In parallel, the toxicity of the compounds was assessed on the same plates. Once the read-out for the eGFP signal was done, 10 μL of resazurin, a cell viability stain, was added to all wells of the 384-well plates. The resazurin assay is based on the reduction of the blue resazurin by NADH, produced by the cells, into the highly fluorescent product, resorufin. The formation of pink fluorescent resorufin is directly related to the number of viable cells in the well. The plates were incubated for an additional 5 hours in a fully humidified incubator (37° C., 5% CO2). Next, the plates were measured on an Infinite reader (Tecan) using an excitation wavelength of 530 nm. The half maximal cytotoxic concentration (CC50) was also determined, defined as the concentration required to reduce the resazurin conversion by 50% compared to that of the cell control wells (Table 1). Finally, the selectivity index (SI) is determined for the compounds, which is calculated as followed: SI=CC50/EC50.

`COc1cc(NC(C(=O)c2c[nH]c3c(F)c(F)ccc23)c2ccc(Cl)cc2OC)cc(OCCO)c1` (single isomer, unassigned) [Compound 11B, 2-(4-chloro-2-methoxyphenyl)-1-(6,7-difluoro-1H-indol-3-yl)-2-((3-(2-hydroxyethoxy)-5-methoxyphenyl)amino)ethanone] showed a CC50 (uninfected Vero cells) of 11 µM, a CC50 (in vitro [1]) of 7.7 µM and an EC50 (DENV-4 strain H241) of 0.35 µM.

`COc1cc(NC(C(=O)c2c[nH]c3cc(OC)ccc23)c2ccc(Cl)cc2OC)cc(OCCO)c1` (single isomer, unassigned) [Compound 5A, 2-(4-chloro-2-methoxyphenyl)-2-((3-(2-hydroxyethoxy)-5-methoxyphenyl)amino)-1-(6-methoxy-1H-indol-3-yl)ethanone] showed a CC50 (uninfected Vero cells) of 11 µM, a CC50 (in vitro [1]) of 7.8 µM and an EC50 (DENV-4 strain H241) of 0.32 µM. The CC50 (in vitro [2]) was 5.9 µM.

`COc1cc(NC(C(=O)c2c[nH]c3c(C)c(F)ccc23)c2ccc(Cl)cc2OC)cc(OCCO)c1` (single isomer, unassigned) [Compound 2A, 2-(4-chloro-2-methoxyphenyl)-1-(6-fluoro-7-methyl-1H-indol-3-yl)-2-((3-(2-hydroxyethoxy)-5-methoxyphenyl)amino)ethanone] showed a CC50 (uninfected Vero cells) of 13 µM, a CC50 (in vitro [1]) of 7.4 µM and an EC50 (DENV-4 strain H241) of 0.26 µM. The CC50 (in vitro [2]) was 4.2 µM.

Work on `COc1cc(NC(C(=O)c2c[nH]c3cc(Cl)ccc23)c2ccc(Cl)cc2OC)cc(OCCO)c1` (single isomer, unassigned) [Compound 4A, 1-(6-chloro-1H-indol-3-yl)-2-(4-chloro-2-methoxyphenyl)-2-((3-(2-hydroxyethoxy)-5-methoxyphenyl)amino)ethanone] yielded a CC50 (uninfected Vero cells) of 13 µM, a CC50 (in vitro [1]) of 9.5 µM and an EC50 (DENV-4 strain H241) of 0.24 µM. For the same compound, the CC50 (in vitro [2]) was 4.9 µM.

`COc1cc(NC(C(=O)c2c[nH]c3c(C)c(Cl)ccc23)c2ccc(Cl)cc2OC)cc(OCCO)c1` (single isomer, unassigned) [Compound 3A, 2-(4-chloro-2-methoxyphenyl)-1-(6-chloro-7-methyl-1H-indol-3-yl)-2-((3-(2-hydroxyethoxy)-5-methoxyphenyl)amino)ethanone] showed a CC50 (uninfected Vero cells) of 12 µM, a CC50 (in vitro [1]) of 7.7 µM and an EC50 (DENV-4 strain H241) of 0.18 µM. The CC50 (in vitro [2]) was 4.5 µM.

For `COc1cc(NC(C(=O)c2c[nH]c3cc(F)c(F)cc23)c2ccc(Cl)cc2OC)cc(OCCO)c1` (single isomer, unassigned) [Compound 9A, 2-(4-chloro-2-methoxyphenyl)-1-(5,6-difluoro-1H-indol-3-yl)-2-((3-(2-hydroxyethoxy)-5-methoxyphenyl)amino)ethanone], the CC50 (uninfected Vero cells) was 12 µM, the CC50 (in vitro [1]) was 7.9 µM and the EC50 (DENV-4 strain H241) was 0.24 µM. It also gave a CC50 (in vitro [2]) of 3.9 µM.

Compound `COc1cc(NC(C(=O)c2c[nH]c3cc(OC)c(F)cc23)c2ccc(Cl)cc2OC)cc(OCCO)c1` (single isomer, unassigned) [Compound 7A, 2-(4-chloro-2-methoxyphenyl)-1-(5-fluoro-6-methoxy-1H-indol-3-yl)-2-((3-(2-hydroxyethoxy)-5-methoxyphenyl)amino)ethanone] has a CC50 (uninfected Vero cells) of 12 µM, a CC50 (in vitro [1]) of 7.2 µM and an EC50 (DENV-4 strain H241) of 0.23 µM. It also gave a CC50 (in vitro [2]) of 6.1 µM.

In the case of `COc1cc(NC(C(=O)c2c[nH]c3cc(OC)c(C)cc23)c2ccc(Cl)cc2OC)cc(OCCO)c1` (single isomer, unassigned) [Compound 6A, 2-(4-chloro-2-methoxyphenyl)-2-((3-(2-hydroxyethoxy)-5-methoxyphenyl)amino)-1-(6-methoxy-5-methyl-1H-indol-3-yl)ethanone], the CC50 (uninfected Vero cells) is reported as 13 µM, the CC50 (in vitro [1]) is reported as 8.1 µM and the EC50 (DENV-4 strain H241) is reported as 0.084 µM. For the same compound, the CC50 (in vitro [2]) was 5.1 µM.

Compound `COc1cc(NC(C(=O)c2c[nH]c3cc(F)ccc23)c2ccc(Cl)cc2OC)cc(OCCO)c1` (single isomer, unassigned) [Compound 1A, 2-(4-chloro-2-methoxyphenyl)-1-(6-fluoro-1H-indol-3-yl)-2-((3-(2-hydroxyethoxy)-5-methoxyphenyl)amino)ethanone] has a CC50 (uninfected Vero cells) of 14 µM, a CC50 (in vitro [1]) of 9.7 µM and an EC50 (DENV-4 strain H241) of 0.24 µM. For the same compound, the CC50 (in vitro [2]) was 4.3 µM.

Work on `COc1cc(NC(C(=O)c2c[nH]c3c(F)cc(C)cc23)c2ccc(Cl)cc2OC)cc(OCCO)c1` (single isomer, unassigned) [Compound 10A, 2-(4-chloro-2-methoxyphenyl)-1-(7-fluoro-5-methyl-1H-indol-3-yl)-2-((3-(2-hydroxyethoxy)-5-methoxyphenyl)amino)ethanone] yielded a CC50 (uninfected Vero cells) of 12 µM, a CC50 (in vitro [1]) of 8 µM and an EC50 (DENV-4 strain H241) of 0.32 µM. It also gave a CC50 (in vitro [2]) of 4.5 µM.

Compound `COc1cc(NC(C(=O)c2c[nH]c3c(C)cc(F)cc23)c2ccc(Cl)cc2OC)cc(OCCO)c1` (single isomer, unassigned) [Compound 8A, 2-(4-chloro-2-methoxyphenyl)-1-(5-fluoro-7-methyl-1H-indol-3-yl)-2-((3-(2-hydroxyethoxy)-5-methoxyphenyl)amino)ethanone] has a CC50 (uninfected Vero cells) of 11 µM, a CC50 (in vitro [1]) of 7.7 µM and an EC50 (DENV-4 strain H241) of 0.3 µM. The CC50 (in vitro [2]) was 4.2 µM.

— patent publication US9944598B2, “Mono- or di-substituted indole derivatives as dengue viral replication inhibitors” (priority 2014, dated 2018)
